Assays:
[1] = test system: proteolytic activity in the midgut extracts; conditions: three species of beetles; cited from earlier work
[2] = test system: wCRW larvae; test: Artificial diet bioassay, neonate wCRW larvae; type: in vivo; conditions: Diabrotica virgifera, 144 h; diet supplemented with 0.01%; mortality at day 6; read-out: % wCRW mortality ± SE
Method: Neonate wCRW larvae are allowed to feed on BioServe, a standard artificial diet used for southern corn rootworm. The diet is supplemented with the treatments indicated below in Table 3. Two or 3 larvae are placed in treatment wells with 9 replicate wells used per treatment. The larvae are allowed to feed on the diet and mortality is evaluated at day 6.

Structure (SMILES): CC(C)C[C@H](NC(=O)[C@H]1O[C@@H]1C(=O)O)C(=O)NCCCCN=C(N)N [E64, [N-(L-3 transcarrboxyoxiran-2-carbonyl)-L-leucyl]-amido(4-guanido)-butane]
- inhibition of proteolytic activity in midgut extracts [1]: much or most of the proteolytic activity in the midgut extracts was inhibited
- mortality at 0.01 % [2]: 80 ± 8%
